Measurements taken from ChEMBL document CHEMBL5291721, “A preclinical secondary pharmacology resource illuminates target-adverse drug reaction associations of marketed drugs” (Nat Commun, 2023).

What was measured:
Glucocorticoid receptor = target: T1, Glucocorticoid receptor (Homo sapiens, UniProt P04150)
T1 sequence (P04150 whole entry): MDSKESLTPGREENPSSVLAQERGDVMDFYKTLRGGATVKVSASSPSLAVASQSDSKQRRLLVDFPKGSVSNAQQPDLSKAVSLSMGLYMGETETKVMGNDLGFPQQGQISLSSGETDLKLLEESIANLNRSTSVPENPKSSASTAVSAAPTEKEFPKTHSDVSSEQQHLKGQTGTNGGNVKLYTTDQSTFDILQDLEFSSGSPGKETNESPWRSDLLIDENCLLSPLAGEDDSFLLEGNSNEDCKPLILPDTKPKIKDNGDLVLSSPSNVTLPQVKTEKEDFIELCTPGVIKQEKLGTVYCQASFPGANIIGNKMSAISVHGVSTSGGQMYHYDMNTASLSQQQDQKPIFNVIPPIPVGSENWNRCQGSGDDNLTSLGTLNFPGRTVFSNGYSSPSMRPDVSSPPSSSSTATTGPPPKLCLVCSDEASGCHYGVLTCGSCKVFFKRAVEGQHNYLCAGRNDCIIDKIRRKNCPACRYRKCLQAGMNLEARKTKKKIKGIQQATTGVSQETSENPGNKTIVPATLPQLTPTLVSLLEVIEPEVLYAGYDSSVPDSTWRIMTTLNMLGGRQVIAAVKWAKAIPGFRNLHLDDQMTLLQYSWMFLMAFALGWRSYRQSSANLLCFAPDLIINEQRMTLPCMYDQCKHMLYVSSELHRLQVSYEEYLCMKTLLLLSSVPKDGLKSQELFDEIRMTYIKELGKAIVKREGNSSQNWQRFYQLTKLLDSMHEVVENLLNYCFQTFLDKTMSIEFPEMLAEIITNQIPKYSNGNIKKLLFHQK

[1] = target: T2, 5-hydroxytryptamine receptor 3A (Homo sapiens, UniProt P46098); format: functional
T2 sequence (P46098 whole entry): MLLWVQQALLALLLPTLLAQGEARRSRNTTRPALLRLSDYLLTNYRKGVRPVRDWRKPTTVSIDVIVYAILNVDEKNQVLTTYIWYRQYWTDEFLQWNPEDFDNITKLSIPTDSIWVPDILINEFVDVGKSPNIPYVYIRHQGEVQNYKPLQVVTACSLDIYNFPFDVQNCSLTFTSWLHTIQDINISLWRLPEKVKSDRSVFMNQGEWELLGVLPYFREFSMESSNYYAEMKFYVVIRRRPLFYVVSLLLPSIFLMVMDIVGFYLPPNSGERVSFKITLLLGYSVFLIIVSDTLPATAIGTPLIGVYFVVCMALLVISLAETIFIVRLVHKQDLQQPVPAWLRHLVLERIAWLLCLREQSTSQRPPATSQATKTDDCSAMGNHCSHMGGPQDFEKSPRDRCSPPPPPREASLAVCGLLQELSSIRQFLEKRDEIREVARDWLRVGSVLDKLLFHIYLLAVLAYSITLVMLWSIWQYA

[2] = target: 3',5'-cyclic-AMP phosphodiesterase 4D (Homo sapiens, UniProt Q08499); format: functional
Chain of 3',5'-cyclic-AMP phosphodiesterase 4D (Q08499 whole entry): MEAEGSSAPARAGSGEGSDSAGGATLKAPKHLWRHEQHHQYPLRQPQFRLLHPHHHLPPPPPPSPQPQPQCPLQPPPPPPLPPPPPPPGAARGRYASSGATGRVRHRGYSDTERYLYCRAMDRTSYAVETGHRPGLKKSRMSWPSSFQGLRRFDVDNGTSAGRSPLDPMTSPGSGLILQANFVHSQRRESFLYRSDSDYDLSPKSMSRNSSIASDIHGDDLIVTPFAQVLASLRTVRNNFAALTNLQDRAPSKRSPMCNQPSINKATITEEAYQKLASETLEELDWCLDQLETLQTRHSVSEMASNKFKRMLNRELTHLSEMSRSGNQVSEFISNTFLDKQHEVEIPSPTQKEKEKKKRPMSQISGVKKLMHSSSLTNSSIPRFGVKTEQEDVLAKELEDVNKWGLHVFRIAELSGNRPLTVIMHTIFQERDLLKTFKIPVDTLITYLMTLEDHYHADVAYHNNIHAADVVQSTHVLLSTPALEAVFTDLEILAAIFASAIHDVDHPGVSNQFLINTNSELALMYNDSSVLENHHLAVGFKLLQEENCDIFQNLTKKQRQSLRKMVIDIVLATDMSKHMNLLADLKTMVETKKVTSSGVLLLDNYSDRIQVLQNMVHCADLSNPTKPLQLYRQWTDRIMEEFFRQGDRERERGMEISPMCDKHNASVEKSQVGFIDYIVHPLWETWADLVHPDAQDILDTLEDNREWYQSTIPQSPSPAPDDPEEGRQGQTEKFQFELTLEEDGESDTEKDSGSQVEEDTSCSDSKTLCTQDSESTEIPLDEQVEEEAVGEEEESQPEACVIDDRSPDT

[3] = target: T3, Alpha-1A adrenergic receptor (Homo sapiens, UniProt P35348); format: functional, cell-based
T3 sequence (P35348 whole entry): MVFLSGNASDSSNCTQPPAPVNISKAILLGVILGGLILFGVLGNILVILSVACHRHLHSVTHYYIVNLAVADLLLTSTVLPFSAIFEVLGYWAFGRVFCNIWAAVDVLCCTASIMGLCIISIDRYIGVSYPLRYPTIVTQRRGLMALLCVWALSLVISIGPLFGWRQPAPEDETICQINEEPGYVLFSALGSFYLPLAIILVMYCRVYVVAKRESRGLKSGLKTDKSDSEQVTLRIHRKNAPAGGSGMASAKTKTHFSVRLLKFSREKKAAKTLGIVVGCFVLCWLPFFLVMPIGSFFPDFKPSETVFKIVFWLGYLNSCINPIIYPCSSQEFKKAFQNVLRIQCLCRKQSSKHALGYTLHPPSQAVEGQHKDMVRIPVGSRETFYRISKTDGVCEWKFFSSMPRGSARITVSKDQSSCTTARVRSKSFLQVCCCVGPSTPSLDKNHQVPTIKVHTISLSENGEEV

[4] = target: T4, Equilibrative nucleoside transporter 1 (Homo sapiens, UniProt Q99808)
T4 sequence (Q99808 whole entry): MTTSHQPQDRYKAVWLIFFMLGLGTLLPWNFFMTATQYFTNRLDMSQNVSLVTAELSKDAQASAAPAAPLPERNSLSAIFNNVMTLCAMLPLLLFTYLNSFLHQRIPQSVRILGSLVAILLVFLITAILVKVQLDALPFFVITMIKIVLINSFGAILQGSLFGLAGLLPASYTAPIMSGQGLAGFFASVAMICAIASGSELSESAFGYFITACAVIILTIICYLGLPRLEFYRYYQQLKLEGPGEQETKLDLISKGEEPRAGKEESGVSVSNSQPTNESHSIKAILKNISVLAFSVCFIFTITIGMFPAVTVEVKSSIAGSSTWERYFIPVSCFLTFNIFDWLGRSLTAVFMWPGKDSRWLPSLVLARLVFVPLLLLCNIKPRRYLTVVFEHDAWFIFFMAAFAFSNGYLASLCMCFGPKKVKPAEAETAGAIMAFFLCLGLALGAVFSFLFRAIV

Histamine H3 receptor = Histamine H3 receptor (Homo sapiens, UniProt Q9Y5N1)
Chain of Histamine H3 receptor (Q9Y5N1 whole entry): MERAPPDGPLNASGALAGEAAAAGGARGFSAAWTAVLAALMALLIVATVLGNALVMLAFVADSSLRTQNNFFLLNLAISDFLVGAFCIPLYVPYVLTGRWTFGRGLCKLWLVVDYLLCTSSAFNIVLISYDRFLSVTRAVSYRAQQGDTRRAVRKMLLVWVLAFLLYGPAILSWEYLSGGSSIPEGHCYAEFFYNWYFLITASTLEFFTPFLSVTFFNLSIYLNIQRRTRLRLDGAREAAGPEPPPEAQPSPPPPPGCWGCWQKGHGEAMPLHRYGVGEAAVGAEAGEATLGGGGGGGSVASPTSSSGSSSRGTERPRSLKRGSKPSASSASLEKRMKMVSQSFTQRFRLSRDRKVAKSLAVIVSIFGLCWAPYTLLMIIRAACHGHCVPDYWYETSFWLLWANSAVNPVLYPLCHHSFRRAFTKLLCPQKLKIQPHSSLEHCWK

[5] = target: T5, Alpha-2A adrenergic receptor (Homo sapiens, UniProt P08913); format: functional, cell-based
T5 sequence (P08913 whole entry): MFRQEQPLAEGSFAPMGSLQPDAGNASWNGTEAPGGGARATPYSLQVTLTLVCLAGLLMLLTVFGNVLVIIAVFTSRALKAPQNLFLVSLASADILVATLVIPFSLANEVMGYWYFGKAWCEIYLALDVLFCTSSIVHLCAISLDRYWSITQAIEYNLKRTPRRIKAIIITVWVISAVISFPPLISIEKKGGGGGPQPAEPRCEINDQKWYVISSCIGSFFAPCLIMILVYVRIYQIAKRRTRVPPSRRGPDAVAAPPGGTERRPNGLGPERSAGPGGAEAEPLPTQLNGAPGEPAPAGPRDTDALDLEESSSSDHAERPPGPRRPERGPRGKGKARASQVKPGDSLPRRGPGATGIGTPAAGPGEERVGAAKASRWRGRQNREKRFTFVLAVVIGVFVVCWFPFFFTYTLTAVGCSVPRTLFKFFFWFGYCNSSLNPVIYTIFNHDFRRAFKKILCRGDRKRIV

Measured: AC50
Also: assay procedure not described here.

C=CCN1CCCC1CNC(=O)c1cc(S(N)(=O)=O)cc(OC)c1OC (stereo not given) [VERALIPRIDE]
> 30 µM: Glucocorticoid receptor | [1] | [2] | [3] | [4] | [5]
23 µM: Histamine H3 receptor

CCOC(=O)[N-]c1cn(N2CCOCC2)n[o+]1 [MOLSIDOMINE]
> 30 µM: Glucocorticoid receptor | [1] | [2] | [3] | [4] | Histamine H3 receptor | [5]

CO/N=C(\C(=O)N[C@@H]1C(=O)N2C(C(=O)O)=C(CSc3nnnn3C)CS[C@H]12)c1csc(N)n1 [CEFMENOXIME]
> 30 µM: Glucocorticoid receptor | [2] | [3] | [4] | Histamine H3 receptor | [5]

CCC(C(=O)O)c1ccc(N2Cc3ccccc3C2=O)cc1 (stereo not given) [INDOBUFEN]
> 30 µM: Glucocorticoid receptor | [1] | [2] | [3] | [4] | Histamine H3 receptor | [5]

OC(CNCC(O)C1CCc2cc(F)ccc2O1)C1CCc2cc(F)ccc2O1 (stereo not given) [NEBIVOLOL]
23 µM: Histamine H3 receptor
> 30 µM: Glucocorticoid receptor | [1] | [2] | [3] | [4] | [5]

CC=CC(=O)N(CC)c1ccccc1C
> 10 µM: Glucocorticoid receptor | [4] | Histamine H3 receptor | [5]
> 30 µM: [1] | [2] | [3]

Cc1ccc(-n2nccn2)c(C(=O)N2CCN(c3nc4cc(Cl)ccc4o3)CC[C@H]2C)c1 [SUVOREXANT]
> 30 µM: Glucocorticoid receptor | [1] | [2] | [3] | Histamine H3 receptor | [5]

CCCCc1ncc(/C=C(\Cc2cccs2)C(=O)O)n1Cc1ccc(C(=O)O)cc1 [EPROSARTAN]
> 10 µM: [1] | [2] | [4] | Histamine H3 receptor | [5]
> 30 µM: Glucocorticoid receptor | [3]

CCOC(=O)OC(C)OC1=C(C(=O)Nc2ccccn2)N(C)S(=O)(=O)c2ccccc21 (stereo not given) [AMPIROXICAM]
> 30 µM: Glucocorticoid receptor | [1] | [2] | [3] | [4] | Histamine H3 receptor | [5]

CC(=O)OCC(=O)[C@@]12N=C(C)O[C@@H]1C[C@H]1[C@@H]3CCC4=CC(=O)C=C[C@]4(C)[C@H]3[C@@H](O)C[C@@]12C [DEFLAZACORT]
> 30 µM: [1] | [2] | [3] | [4] | Histamine H3 receptor | [5]
0.66 µM: Glucocorticoid receptor

O=C(O)C1=C(CSc2nnnn2CS(=O)(=O)O)CS[C@@H]2[C@H](NC(=O)[C@H](O)c3ccccc3)C(=O)N12 [CEFONICID]
> 30 µM: Glucocorticoid receptor | [1] | [2] | [3] | [4] | Histamine H3 receptor | [5]

COc1ccccc1OCCNCC(O)c1ccc(C)c(S(N)(=O)=O)c1 (stereo not given) [AMOSULALOL]
6.7 µM: [2]
> 30 µM: Glucocorticoid receptor | [1] | [4] | Histamine H3 receptor | [5]
0.32 µM: [3]

CCCCCCOc1ccccc1C(N)=O [EXALAMIDE]
> 30 µM: Glucocorticoid receptor | [1] | [2] | [3] | [4] | Histamine H3 receptor
13 µM: [5]

Nc1nc(N)nc(-c2cc(Cl)ccc2Cl)n1 [IRSOGLADINE]
> 30 µM: Glucocorticoid receptor | [3] | Histamine H3 receptor | [5]
21.4 µM: [2]

COc1cc2c(N)nc(N3CCN(C(=O)OCC(C)(C)O)CC3)nc2c(OC)c1OC [TRIMAZOSIN]
> 30 µM: Glucocorticoid receptor | [1] | [2] | [3] | Histamine H3 receptor | [5]

COc1ccc2c3c1O[C@H]1C(=O)CC[C@@]4(O)[C@@H](C2)N(C)CC[C@]314 [OXYCODONE]
> 30 µM: Glucocorticoid receptor | [1] | [2] | [3] | [4] | Histamine H3 receptor | [5]

COC(=O)C1=C(C)NC(C)=C(C(=O)OC2CCCN(Cc3ccccc3)C2)C1c1cccc([N+](=O)[O-])c1 (stereo not given) [BENIDIPINE]
4.5 µM: [3]
> 30 µM: Glucocorticoid receptor | [1] | Histamine H3 receptor | [5]
7.1 µM: [2]
8.2 µM: [4]

CCC1(CC)C(=O)NCC(C)C1=O (stereo not given) [METHYPRYLON]
> 30 µM: Glucocorticoid receptor | [1] | [2] | [3] | [4] | Histamine H3 receptor | [5]

NCC(=O)CCC(=O)O [AMINOLEVULINIC ACID]
> 30 µM: Glucocorticoid receptor | [1] | [2] | [3] | Histamine H3 receptor | [5]

C#C[C@]1(O)CC[C@H]2[C@@H]3CCC4=Cc5oncc5C[C@]4(C)[C@H]3CC[C@@]21C [DANAZOL]
> 30 µM: [3]
0.111 µM: Glucocorticoid receptor
> 10 µM: [4] | Histamine H3 receptor | [5]

CC(Oc1c(Cl)cccc1Cl)C1=NCCN1 (stereo not given) [LOFEXIDINE]
> 30 µM: Glucocorticoid receptor | [1] | [2] | [4] | Histamine H3 receptor
0.0071 µM: [3]

C=CCC1(CC(C)C)C(=O)NC(=O)NC1=O [BUTALBITAL]
> 10 µM: Glucocorticoid receptor | [4] | [5]
> 30 µM: [1] | [2] | [3]

COc1ccc(CCN(C)CCCC(C#N)(c2cc(OC)c(OC)c(OC)c2)C(C)C)cc1OC (stereo not given) [GALLOPAMIL]
9.2 µM: [2]
> 30 µM: Glucocorticoid receptor | [1] | [3] | Histamine H3 receptor | [5]
